This experiment has as its target Cytochrome P450 3A4 (Homo sapiens, UniProt P08684).

Cytochrome P450 3A4, sequence (P08684 whole entry): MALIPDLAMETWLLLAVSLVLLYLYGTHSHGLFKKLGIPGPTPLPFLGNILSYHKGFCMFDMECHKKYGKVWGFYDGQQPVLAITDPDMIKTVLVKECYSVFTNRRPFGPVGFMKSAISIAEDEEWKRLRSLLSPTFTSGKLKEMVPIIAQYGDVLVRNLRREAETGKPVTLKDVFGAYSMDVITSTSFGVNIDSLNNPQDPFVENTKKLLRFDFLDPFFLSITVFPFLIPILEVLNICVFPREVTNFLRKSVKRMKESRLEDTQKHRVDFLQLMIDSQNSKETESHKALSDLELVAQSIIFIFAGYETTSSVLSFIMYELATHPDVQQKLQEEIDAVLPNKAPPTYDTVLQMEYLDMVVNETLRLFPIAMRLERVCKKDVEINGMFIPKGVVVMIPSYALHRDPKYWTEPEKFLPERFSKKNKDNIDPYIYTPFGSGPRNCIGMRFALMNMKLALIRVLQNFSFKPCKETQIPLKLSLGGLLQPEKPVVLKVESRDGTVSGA

`CC(C)(C)C(=O)C(Oc1ccc(Cl)cc1)n1cncn1` (stereo not drawn) [TRIADIMEFON]: half-maximal inhibition (IC50) required 9.29 µM.

The compound `CCCC1COC(Cn2cncn2)(c2ccc(Cl)cc2Cl)O1` (stereo not drawn) [PROPICONAZOLE] showed an IC50 of 1.04 µM.

Turning to `CC(C)(C(=O)c1cccnc1)c1cccnc1` [METYRAPONE], the IC50 is 4.93 µM.

As usually defined, the IC50 is the concentration at which inhibition is half-maximal. A higher IC50 goes with lower potency.

These data come from ChEMBL document CHEMBL1152485, “Comparative chemometric modeling of cytochrome 3A4 inhibitory activity of structurally diverse compounds using stepwise MLR, FA-MLR, PLS, GFA, G/PLS and ANN techniques” (Eur J Med Chem, 2009).
